Experimental data: publication PMC3461998 (Angewandte Chemie (International ed. in English), 2012)
Read-outs that look alike come from different tables or passages of the source.

Assays:
avidin = avidin (Gallus gallus, UniProt P02701); test: bMR nanosensor competition assay, avidin-biotin; type: binding; settings: control study with avidin bMR nanosensors
[1] = target: T1, tetanus toxin C fragment (TTC) (Clostridium tetani, UniProt P04958); test: biochemical; type: binding
[2] = target: T1, tetanus toxin C fragment (TTC); settings: read-out: KD Reported; cited from earlier work
[3] = target: T2, cholera toxin B subunit (CTB) (Vibrio cholerae serotype O1, UniProt P01556); test: biochemical; type: binding
mouse IgG (mouse) = test: magnetic relaxation
[4] = target: T2, cholera toxin B subunit (CTB); settings: read-out: KD Reported; cited from earlier work
Concanavalin A = Concanavalin A (Canavalia ensiformis, UniProt P02866); settings: read-out: KD Reported; cited from earlier work

T2 sequence (P01556 22-124 limits assumed): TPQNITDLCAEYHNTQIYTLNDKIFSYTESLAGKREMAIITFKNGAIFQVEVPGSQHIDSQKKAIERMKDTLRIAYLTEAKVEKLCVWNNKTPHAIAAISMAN
T1 sequence (P04958 865-1315 limits assumed): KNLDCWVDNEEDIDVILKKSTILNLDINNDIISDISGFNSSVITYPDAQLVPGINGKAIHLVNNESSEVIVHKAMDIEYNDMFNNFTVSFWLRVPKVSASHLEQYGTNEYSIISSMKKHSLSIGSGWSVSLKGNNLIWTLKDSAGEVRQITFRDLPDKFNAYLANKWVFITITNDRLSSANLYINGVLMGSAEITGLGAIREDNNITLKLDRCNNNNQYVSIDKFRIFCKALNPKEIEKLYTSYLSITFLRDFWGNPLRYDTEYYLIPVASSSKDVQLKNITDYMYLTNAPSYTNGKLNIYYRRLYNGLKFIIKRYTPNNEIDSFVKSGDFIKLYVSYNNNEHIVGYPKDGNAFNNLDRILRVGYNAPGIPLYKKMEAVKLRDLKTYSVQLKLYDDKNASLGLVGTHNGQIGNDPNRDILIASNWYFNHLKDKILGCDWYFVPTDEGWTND
avidin, sequence (P02701 25-152, species assumed): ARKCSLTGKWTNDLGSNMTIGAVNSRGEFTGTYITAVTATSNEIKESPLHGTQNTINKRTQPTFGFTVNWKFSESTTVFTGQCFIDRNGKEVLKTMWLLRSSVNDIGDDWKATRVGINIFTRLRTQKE

## bovine serum albumin
avidin
  changes in magnetic relaxation: nominal changes

## O=C(O)c1cc(O)c2c(c1)C(=O)c1cccc(O)c1C2=O [Rhein, rhein]
[1]
  Kd: 33.6 µM

## COc1cccc2c1C(=O)c1c(O)c3c(c(O)c1C2=O)C[C@@](O)(C(=O)CO)C[C@@H]3O[C@H]1C[C@H](N)[C@H](O)[C@H](C)O1 [Doxorubicin, doxorubicin]
[2]
  Kd: 9.4 µM
[1]
  Kd: 4.1 µM

## O=C[C@H](O)[C@@H](O)[C@@H](O)[C@H](O)CO [Galactose, galactose]
[3]
  Kd: 3.5 µM

## OC[C@H]1OC(O)[C@H](O)[C@@H](O)[C@@H]1O (stereo partly drawn) [Glucose, glucose]
[3]
  Kd: 36 µM

## Protein G (from UniProt P06654 34-417) (natural protein)
Mouse IgG (mouse)
  Kd: 0.4 pM

## OC[C@H]1O[C@@H](O[C@H]2[C@H](O)[C@@H](O)C(O)O[C@@H]2CO)[C@H](O)[C@@H](O)[C@H]1O (mixture of isomers) [Lactose, lactose]
[3]
  Kd: 88 µM

## OC[C@H]1O[C@@H]2O[C@H]3[C@H](O)[C@@H](O)[C@@H](O[C@H]4[C@H](O)[C@@H](O)[C@@H](O[C@H]5[C@H](O)[C@@H](O)[C@@H](O[C@H]6[C@H](O)[C@@H](O)[C@@H](O[C@H]7[C@H](O)[C@@H](O)[C@@H](O[C@H]8[C@H](O)[C@@H](O)[C@@H](O[C@H]1[C@H](O)[C@H]2O)O[C@@H]8CO)O[C@@H]7CO)O[C@@H]6CO)O[C@@H]5CO)O[C@@H]4CO)O[C@@H]3CO [β-Cyclodextrin, β-cyclodextrin]
[3]
  Kd: 3.6 µM

## dextran
[3]
  Kd: 4.9 µM
[4]
  Kd: 14000 µM
Concanavalin A
  Kd: 0.09 µM
